The supplement of paper PMC10307832

Key:
Assay in all cases: relative viability (nuclei count vs DMSO), 5 days (fraction); higher = more cells survive
[1] = compound: C=CC(=O)N1CCC[C@@H](n2nc(-c3ccc(Oc4ccccc4)cc3)c3c(N)ncnc32)C1 [Ibrutinib] + Cc1nc(Nc2ncc(C(=O)Nc3c(C)cccc3Cl)s2)cc(N2CCN(CCO)CC2)n1 [Dasatinib] (partner 0.075 µM)
Procedure, shortened: (§1)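 Dosing by pin tool came one day after lung cancer cell lines were seeded in 1536-well plates, using either one drug or a fixed anchor-drug dose plus five library-drug doses (not always all listed) in √10 steps. After 5 days, nuclei were counted on 4× images. Relative viability is treated-well nuclei count divided by vehicle-well nuclei count, and values are medians of duplicate plates.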

[2] = compound: C=CC(=O)Nc1cc(-n2c(=O)ccc3cnc4ccc(-c5ccc(NS(C)(=O)=O)cc5)cc4c32)ccc1C [BMX-IN-1] + CS(=O)(=O)N1CCN(Cc2cc3nc(-c4cccc5[nH]ncc45)nc(N4CCOCC4)c3s2)CC1 [Pictilisib] (partner 1 µM)
Procedure, shortened: as §1

[3] = compound: C=CC(=O)Nc1cc(-n2c(=O)ccc3cnc4ccc(-c5ccc(NS(C)(=O)=O)cc5)cc4c32)ccc1C [BMX-IN-1] + NC(=O)Nc1cc(-c2cccc(F)c2)sc1C(=O)N[C@H]1CCCNC1 [AZD7762] (partner 0.2 µM)
Procedure, shortened: as §1

[4] = compound: C=CC(=O)Nc1cc(-n2c(=O)ccc3cnc4ccc(-c5ccc(NS(C)(=O)=O)cc5)cc4c32)ccc1C [BMX-IN-1] + COc1cccc2cc(-c3nc([C@H]4CC[C@H](C(=O)O)CC4)n4ncnc(N)c34)[nH]c12 [OSI-027] (partner 0.5 µM)
Procedure, shortened: as §1

| Cell Line | relative viability ([1]; first compound 0.005 µM) | relative viability ([1]; first compound 0.01581 µM) | relative viability ([1]; first compound 0.05 µM) | relative viability ([1]; first compound 0.5 µM) | relative viability ([2]; first compound 0.02 µM) | relative viability ([2]; first compound 0.2 µM) | relative viability ([2]; first compound 0.6325 µM) | relative viability ([2]; first compound 2 µM) | relative viability ([3]; first compound 0.02 µM) | relative viability ([3]; first compound 0.2 µM) | relative viability ([3]; first compound 0.6325 µM) | relative viability ([3]; first compound 2 µM) | relative viability ([4]; first compound 0.02 µM) | relative viability ([4]; first compound 0.2 µM) | relative viability ([4]; first compound 0.6325 µM) | relative viability ([4]; first compound 2 µM) | relative viability ([1]; first compound 0.1581 µM) |
| --- | --- | --- | --- | --- | --- | --- | --- | --- | --- | --- | --- | --- | --- | --- | --- | --- | --- |
| NCI-H2087 | 1.11 | 0.91 | 1.01 | 0.951 | 0.876 | 0.662 | 0.954 | 1.15 | 1.67 | 1.44 | 1.3 | 1.42 | 0.624 | 0.712 | 0.589 | 0.485 | – |
| NCI-H1793 | – | 0.371 | 0.358 | 0.303 | 0.306 | 0.309 | 0.365 | 0.279 | 0.513 | 0.661 | 0.594 | 0.588 | 0.271 | 0.281 | 0.324 | 0.332 | 0.389 |
| EKVX | 0.525 | 0.455 | 0.481 | 0.352 | 0.522 | 0.439 | 0.442 | 0.404 | 1.02 | 0.81 | 0.843 | 0.723 | 0.848 | 0.689 | 0.783 | 0.663 | 0.489 |
| NCI-H2126 | 0.506 | 0.57 | 0.546 | 0.623 | 0.473 | 0.481 | 0.568 | 0.51 | 1.03 | 1.06 | 1.16 | 1.04 | 0.696 | 0.703 | 0.872 | 0.664 | 0.574 |
| NCI-H1993 | 0.504 | 0.658 | 0.532 | 0.56 | 0.836 | 0.95 | – | 0.821 | 0.907 | 0.926 | 0.706 | 0.724 | 0.546 | 0.6 | 0.489 | 0.476 | 0.53 |
| EPLC-272H | 0.274 | 0.294 | 0.284 | 0.188 | 0.35 | 0.31 | 0.304 | 0.377 | 0.231 | 0.217 | 0.476 | 0.202 | 0.262 | 0.261 | 0.323 | 0.314 | 0.279 |
| LU99A | 0.514 | 0.605 | 0.465 | 0.483 | 0.309 | 0.382 | 0.39 | 0.301 | 0.393 | 0.416 | 0.415 | 0.288 | 0.321 | 0.289 | 0.329 | 0.298 | 0.556 |
| HCC-78 | 0.309 | 0.402 | 0.304 | 0.267 | 0.214 | 0.18 | 0.242 | 0.249 | 0.662 | 0.64 | 0.587 | 0.726 | 0.336 | 0.372 | 0.371 | 0.376 | 0.312 |
| HCC-15 | 0.678 | 0.615 | 0.637 | 0.66 | 0.721 | 0.818 | 0.798 | 0.844 | 0.591 | 1.24 | 1.35 | 1.29 | 0.801 | 0.708 | 0.698 | 0.583 | 0.51 |
| 201T | 0.58 | 0.517 | 0.6 | 0.608 | 0.752 | 0.72 | 0.71 | 0.695 | 0.728 | 0.63 | 0.662 | 0.56 | 0.805 | 0.985 | 0.798 | 0.824 | 0.58 |
